Results: patent US20100286069A1, “CATIONIC PEPTIDE FOR DELIVERING AN AGENT INTO A CELL” (priority 2007, published 2010)
Entries after “also recorded” stand apart in the source; their conditions may differ. Where no end group is shown, it is not given here.

What was measured:
[1] = Zeta potential measurement (Example 2); format: physicochemical; conditions: N/P ratio 40; phosphate buffer pH 6.5
Method: Particle size and Zeta potential measurement: The particle size and zeta potential of the complexes were measured by dynamic light scattering (Brookhaven Instrument Corp., Holtsville, N.Y., U.S.A.) and using Zetasizer (Malvern Instrument Ltd., Worchestershire, UK), respectively. Briefly, AK27/pDNA and AK32/pDNA complexes were formed in phosphate buffer (pH 6.5) at room temperature at different N/P ratios (i.e. 1, 10, 20, 30 and 40). All the particle size measurements were performed with a light source of 677 nm wavelength and 15° constant angle. The particle size measurement was repeated for 5 runs for each sample, and the data was reported as the effective mean diameter. The zeta potential measurement was repeated for 3 runs per samples, and the data was calculated automatically using the software from the electrophoretic mobility based on the Smoluchowski's formula.

pDNA = assay: Gel retardation assay (Example 2); format: binding; conditions: PBS; N/P 1 to 10
Method: Complex formation of peptide amphiphiles with DNA: Complexes were formed at different N/P ratios by directly mixing equal volume of peptide and plasmid DNA (pDNA) solutions to achieve the intended N/P ratio, which measured the relative molar content of nitrogen atoms (N) in each peptide molecule to that of the phosphate groups (P) in each pDNA molecule, and was calculated based on the standardized 3 μgDNA/nmole DNA rule of thumb as described previously (31). To allow for complete electrostatic interaction between peptide and pDNA molecules, the solution was equilibrated at room temperature for 30 minutes upon mixing before being used for further studies.
Gel retardation assay: Various formulations of AK27/pDNA and AK32/pDNA complexes, ranging from N/P ratios of 1 to 10, were prepared in PBS. Post-equilibration, the complexes were electrophoresed on 1% agarose gel (stained with 4 μL of 0.5 μg/ml ethidium bromide per 50 mL of gel) in 0.5×TBE buffer at 80 V for 60 minutes. The gel was then analysed on a UV illuminator (Chemi Genius, Evolve, Singapore) to show the position of the complexed pDNA relative to that of the non-complexed form.
DNA binding: Gel retardation assays of the two peptide-based amphiphiles were performed to qualitatively study the electrostatic interaction between the peptide and pDNA.

[2] = MTT cytotoxicity assay in three cell lines (Example 2); format: cell-based, human, mouse; conditions: HEK293, HepG2 and 4T1 cells; blank nanoparticles and pDNA complexes, even at higher N/P ratios
Method: (§1) Cell culture: Both HEK293 and HepG2 cell lines were cultured in high glucose DMEM medium supplemented with 10% fetal bovine serum (FBS), 100 μg/mL penicillin, and 100 μg/mL streptomycin at 37° C. in a humidified 5% carbon dioxide incubator. 4T1 cell line was also cultured with the same condition as the other cell lines, but in RPMI 1640 growth medium supplemented with 10 mM HEPES.
Cytotoxicity assay: The cytotoxicity of AK27, AK32, AK27/pDNA and AK32/pDNA complexes were all measured using the standard MTT assay protocol. Briefly, HEK293, HepG2 and 4T1 cell lines were seeded onto 96-well plates at 10,000 cells/well, 8,000 cells/well, and 6,000 cells/well seeding density, respectively. Post cell-seeding, the cells were incubated for one day before being used for cytotoxicity assay. For cytotoxicity assay with AK27/pDNA, complexes at N/P ratios of 1, 10, 20, 30, 35, 40, 45 and 50 were prepared in phosphate buffer (pH 6.5) as described earlier. […] After homogenizing the solution, 100 μL of the samples was spectrophotometrically read in a microplate reader (Biorad) at 550 nm and 690 nm wavelength. The relative cell viability was measured as ([Abs550]sample−[Abs690]sample)/([Abs550]control−[Abs690]control)×100%.

[3] = tested on: HEK293, HepG2 and 4T1 cell lines; assay: In vitro luciferase gene expression, three cell lines (Example 2); format: cell-based, human, mouse; conditions: for luciferase gene expression level compared with PEI at N/P 10: general, three cell lines
Method: as §1
In vitro gene expression: HEK293, HepG2, and 4T1 cells were seeded onto 24-well plates at 80,000, 80,000 and 50,000 cells/well, respectively, using the same growth medium and conditions as described previously. After one day, the cells achieved about 70-80% confluence, at which transfection experiments were performed. Briefly, peptide/pDNA complexes were prepared at N/P 1, 10, 20, 30, 35, 40, 45 and 50, and different pH in either sodium acetate buffer (pH 5) or phosphate buffer (pH 6.5 and 7.4). The transfection pH was firstly optimized using HEK293 cell lines and AK27 peptide. […] The total amount of DNA loaded was kept constant at 2.5 μg/well. Cells were allowed to incubate with serum and antibiotics-supplemented growth medium (500 μL/well), onto which the complex solutions (50 μL/well) were added. After four hours following the incubation with the complexes, the medium was then replaced with the fresh one. After 68 hours, the culture medium was removed, and the cells were washed with 0.5 mL of PBS (pH 7.4). 0.2 mL of reporter lysis buffer (Promega, Madison, Wis.) was then added to each well to lyse the cells. The cell suspension was next subjected to two cycles of freezing and thawing, and was centrifuged at 14,000 rpm for 5 minutes. 20 μL of the supernatant of the cell lysate was mixed with 100 μL of luciferase substrate (Promega). The relative light units (RLU) were measured using a luminometer (Lumat LB9507, Berthold, Germany). The luciferase activity was normalized to protein content using the BCA protein assay (Sigma). In all these experiments, both naked DNA-transfected cells and PEI-transfected cells were used as negative and positive controls, respectively. […]

HEK293 cell line = assay: In vitro luciferase gene expression in HEK293 (Example 2); format: cell-based, human
Method: as §1
(§2) In vitro gene expression: HEK293, HepG2, and 4T1 cells were seeded onto 24-well plates at 80,000, 80,000 and 50,000 cells/well, respectively, using the same growth medium and conditions as described previously. After one day, the cells achieved about 70-80% confluence, at which transfection experiments were performed. Briefly, peptide/pDNA complexes were prepared at N/P 1, 10, 20, 30, 35, 40, 45 and 50, and different pH in either sodium acetate buffer (pH 5) or phosphate buffer (pH 6.5 and 7.4). The transfection pH was firstly optimized using HEK293 cell lines and AK27 peptide. […] The total amount of DNA loaded was kept constant at 2.5 μg/well. Cells were allowed to incubate with serum and antibiotics-supplemented growth medium (500 μL/well), onto which the complex solutions (50 μL/well) were added. After four hours following the incubation with the complexes, the medium was then replaced with the fresh one. […] The relative light units (RLU) were measured using a luminometer (Lumat LB9507, Berthold, Germany). […]

[4] = Critical micelle concentration (CMC) measurement with pyrene; format: physicochemical; conditions: PBS (pH 7.4)
Method: Critical micelle concentration (CMC) measurement: The CMC of the peptide amphiphile was measured using pyrene as the probe fluorescence molecule. A series of peptide solutions was prepared at various concentrations (0.01 to 2000 mg/L) in PBS. When excited at 337 nm wavelength, the electrons in the pyrene molecules absorb energy, and in turn, emit photons at wavelengths between 350-450 nm, as indicated by five emission peaks in the pyrene fluorescence spectrum (30). At the concentration of amphiphile above its CMC, when the amphiphile forms core/shell structured nanoparticles having a hydrophobic core and a hydrophilic shell, the pyrene molecules aggregate and are solubilized into the core giving […] intensity of the third peak in the emission spectrum. Therefore, monitoring the intensity of the third peak of pyrene's emission spectra, usually normalized to the first peak's intensity, provides a means to estimate the transition concentration (i.e. CMC) of the amphiphile aggregation.
The inflection point gives an estimate of CMC of AK27 in PBS (pH 7.4), which was approximately 120 mg/L.

HepG2 cell line = assay: In vitro luciferase gene expression in HepG2 (Example 2); format: cell-based, human; conditions: PEI N/P 10, pH 6.5
Method: as §1, §2

4T1 cell line = assay: In vitro luciferase gene expression in 4T1 (Example 2); format: cell-based, mouse; conditions: PEI N/P 10, pH 6.5
Method: as §1, §2

| Sequence | highest zeta potential of peptide/pDNA complexes [1] | N/P ratio for complete retardation of DNA (pDNA) | viability at 4 h [2] | highest luciferase expression level compared with PEI ([3]; at N/P ratio of 45, PEI N/P 10) | luciferase gene expression level compared with PEI at N/P 10 [3] | optimum complexation pH for transfection (HEK293 cell line; pH 5, 6.5 and 7.4 tested) | CMC [4] | highest luciferase expression level compared with PEI (HepG2 cell line) | highest luciferase expression level compared with PEI (4T1 cell line) | highest luciferase expression level compared with PEI (HEK293 cell line; PEI N/P 10, pH 6.5) |
| --- | --- | --- | --- | --- | --- | --- | --- | --- | --- | --- |
| AAAAAAAAAAAAHHHHHKKKKKKKKKK [AK27, (A)12(H)5(K)10] | approximately 7.8±1.1 mV | 3 | > 80% | about one order of magnitude lower | an order of magnitude less | around 6.5 | approximately 120 mg/L | – | – | – |
| AAAAAAAAAAAAHHHHHKKKKKKKKKKKKKKK [AK32, (A)12(H)5(K)15] | ~18.2±0.5 mV | 2 | > 80% | – | almost comparable | – | – | comparable to that provided by PEI; also recorded: comparable to that yielded by PEI | less than an order of magnitude lower | comparable to that provided by PEI; also recorded: comparable to that yielded by PEI |
